One experiment deals with T1, FLK-1 receptor (Mus musculus, UniProt P35918).
T1 construct: expressed in transfected cells; host or cells: NIH3T3 C7#3
Nature of the experiment: FLK-1 ELISA (kinase activity of the FLK-1 receptor in FLK-1/NIH3T3 cells, VEGF stimulated). It is filed as cell-based. In short, it runs like this: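 An ELISA using affinity-purified rabbit anti-FLK-1 antiserum on anti-rabbit IgG-coated plates measured VEGF-stimulated FLK-1 kinase activity. NIH3T3 C7#3 cells carrying FLK-1 were serum-starved (0.1% FBS) overnight, then exposed to compound (final 1:200 dilution, 0.5% DMSO) for two hours at 37 °C.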

A further experiment has as its system MET. Put plainly: MET biochemical kinase assay. More on the design: species or system human; concentration or dose not given beside the values. In short, it runs like this:
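Capture ELISA: anti-rabbit Fc coat, rabbit anti-MET cytoplasmic domain pAb, lysate MET captured, washed. Compound + kinase buffer (ATP, divalent metals). Readout anti-pTyr-HRP/TMB, colorimetric.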

T1 sequence (P35918 20-1345): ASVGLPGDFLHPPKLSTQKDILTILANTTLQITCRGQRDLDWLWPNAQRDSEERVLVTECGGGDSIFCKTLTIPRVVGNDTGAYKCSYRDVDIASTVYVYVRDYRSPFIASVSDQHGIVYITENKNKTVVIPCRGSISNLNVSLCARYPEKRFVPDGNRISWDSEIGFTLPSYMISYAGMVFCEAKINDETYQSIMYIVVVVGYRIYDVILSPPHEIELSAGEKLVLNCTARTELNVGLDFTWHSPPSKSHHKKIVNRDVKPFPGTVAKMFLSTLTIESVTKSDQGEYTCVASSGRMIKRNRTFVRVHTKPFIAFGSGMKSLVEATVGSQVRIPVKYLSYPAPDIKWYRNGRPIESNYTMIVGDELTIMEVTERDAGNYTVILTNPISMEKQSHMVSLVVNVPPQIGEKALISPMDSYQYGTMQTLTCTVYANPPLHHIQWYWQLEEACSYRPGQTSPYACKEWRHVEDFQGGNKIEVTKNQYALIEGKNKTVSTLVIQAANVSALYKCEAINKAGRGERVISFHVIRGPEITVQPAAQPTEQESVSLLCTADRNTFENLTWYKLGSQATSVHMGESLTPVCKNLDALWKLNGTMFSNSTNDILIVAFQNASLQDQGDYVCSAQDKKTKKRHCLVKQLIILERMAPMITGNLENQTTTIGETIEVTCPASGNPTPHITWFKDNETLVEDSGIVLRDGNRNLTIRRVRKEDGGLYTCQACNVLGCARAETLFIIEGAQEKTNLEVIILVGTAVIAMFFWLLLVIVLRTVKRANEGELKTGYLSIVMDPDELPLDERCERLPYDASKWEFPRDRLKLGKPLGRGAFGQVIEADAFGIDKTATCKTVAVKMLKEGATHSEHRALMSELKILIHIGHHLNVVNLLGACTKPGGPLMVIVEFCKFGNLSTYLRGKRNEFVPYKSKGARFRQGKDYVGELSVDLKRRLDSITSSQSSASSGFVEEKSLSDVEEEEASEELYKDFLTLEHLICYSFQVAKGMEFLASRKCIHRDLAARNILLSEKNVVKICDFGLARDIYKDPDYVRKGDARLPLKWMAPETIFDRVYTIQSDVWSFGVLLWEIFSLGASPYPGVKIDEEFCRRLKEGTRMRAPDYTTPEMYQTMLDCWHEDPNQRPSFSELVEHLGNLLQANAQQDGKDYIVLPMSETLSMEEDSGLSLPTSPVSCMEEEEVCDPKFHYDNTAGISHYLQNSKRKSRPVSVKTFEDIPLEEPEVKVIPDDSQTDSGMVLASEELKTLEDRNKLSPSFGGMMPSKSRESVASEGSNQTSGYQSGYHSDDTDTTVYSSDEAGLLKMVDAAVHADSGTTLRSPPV

On to `Cc1c(Br)ccc2c1C(=Cc1c(F)cc(F)cc1F)C(=O)N2` [10720/C02], for which, on FLK-1 receptor, the “Fik Kinase %Inhibition” value is 18.0%. Besides, the “Met Kinase % Inhibition” value with MET came to 63.6%.
With `Cc1c(Br)ccc2c1C(=Cc1ncc[nH]1)C(=O)N2` [10720/C11], on FLK-1 receptor, the “Fik Kinase %Inhibition” value worked out at 52.5%. For the same molecule, the “Met Kinase % Inhibition” value with MET was 30.0%.
The corresponding values for `O=C1Nc2c(Br)cc(Br)cc2C1=Cc1c(F)cc(F)cc1F` [10720/A02] are 4.7% and 45.2%.
For the molecule `Cc1c(Br)ccc2c1C(=Cc1cccs1)C(=O)N2` [10717/C03], the “Fik Kinase %Inhibition” value at FLK-1 receptor is on record as -7.7%. Also, the “Met Kinase % Inhibition” value with MET is 25.3%.
For `COc1cc(OC)c(C=C2C(=O)Nc3ccc(S(=O)(=O)Nc4ccc(C(F)(F)F)cc4)cc32)c(OC)c1` [10719/E06], at FLK-1 receptor, the “Fik Kinase %Inhibition” value was 17.1%. In the experiment with MET, the “Met Kinase % Inhibition” value is -4.5%.
On to `CNS(=O)(=O)c1ccc2c(c1)C(=Cc1ccc(O)c(O)c1)C(=O)N2` [10719/D03], for which the “Fik Kinase %Inhibition” value at FLK-1 receptor is reported as 4.8%. Further, the “Met Kinase % Inhibition” value with MET came to 93.2%.
`CNS(=O)(=O)c1ccc2c(c1)C(=Cc1ccc(OC)cc1OC)C(=O)N2` [10719/D04]: the “Fik Kinase %Inhibition” value at FLK-1 receptor was 27.8%. In the experiment with MET, the “Met Kinase % Inhibition” value was determined as 28.9%.
The corresponding values for `O=C1Nc2c(Br)cc(Br)cc2C1=Cc1ncc[nH]1` [10720/A11] are -0.6% and 58.7%.
The matching figures for `Cc1ccc(C=C2C(=O)Nc3ccc(I)cc32)s1` [10717/B07]: -18.3% and 90.0%.
Turning to `O=C1Nc2ccc(CCCl)cc2C1=Cc1cccc([N+](=O)[O-])c1` [10719/G10], at FLK-1 receptor, the “Fik Kinase %Inhibition” value is on record as 9.7%. In the experiment on MET, the “Met Kinase % Inhibition” value is 35.5%.
Turning to `CNS(=O)(=O)c1ccc2c(c1)C(=Cc1ccc(O)cc1OC)C(=O)N2` [10720/D03], the “Fik Kinase %Inhibition” value on FLK-1 receptor is listed as 17.0%. The “Met Kinase % Inhibition” value with MET is listed as 61.5%.
Regarding `COc1ccc(C=C2C(=O)Nc3ccc(S(=O)(=O)N4CCOCC4)cc32)c(OC)c1` [10719/F04], the “Fik Kinase %Inhibition” value at FLK-1 receptor was determined as 26.6%. For the same molecule, the “Met Kinase % Inhibition” value with MET was 3.3%.
As to `CNS(=O)(=O)c1ccc2c(c1)C(=Cc1cccc([N+](=O)[O-])c1)C(=O)N2` [10719/D10], the “Fik Kinase %Inhibition” value at FLK-1 receptor is listed as 8.3%. Moreover, the “Met Kinase % Inhibition” value in the experiment on MET is 22.3%.
The corresponding values for `COc1ccc(C=C2C(=O)Nc3ccc(CCCl)cc32)c(OC)c1` [10719/G04] are 11.5% and -8.2%.
In the case of `O=C1Nc2ccc(CCCl)cc2C1=Cc1ccc(O)c(O)c1` [10719/G03], the “Fik Kinase %Inhibition” value on FLK-1 receptor is -25.8%. In addition, the “Met Kinase % Inhibition” value with MET amounted to 87.6%.
Take `CN(C)c1ccc(C=C2C(=O)Nc3ccc(CCCl)cc32)cc1` [10719/G08]: the “Fik Kinase %Inhibition” value at FLK-1 receptor was found to be 3.2%. Moreover, the “Met Kinase % Inhibition” value with MET was determined as 39.4%.
For `CCc1c(C)[nH]c(C=C2C(=O)Nc3ccc(S(=O)(=O)N4CCOCC4)cc32)c1C` [10719/F05], the “Fik Kinase %Inhibition” value on FLK-1 receptor is listed as 20.7%. Further, the “Met Kinase % Inhibition” value in the experiment with MET was 63.1%.
For `CSc1ccc(C=C2C(=O)Nc3ccc(I)cc32)s1` [10720/B07], the “Fik Kinase %Inhibition” value at FLK-1 receptor is 12.0%. Also, the “Met Kinase % Inhibition” value with MET is 61.5%.
For the molecule `COc1ccc(O)c(C=C2C(=O)Nc3c(Br)cc(Br)cc32)c1` [10720/A10], the “Fik Kinase %Inhibition” value on FLK-1 receptor is -5.2%. Besides, the “Met Kinase % Inhibition” value in the experiment with MET is 68.4%.
`COc1ccc(C=C2C(=O)Nc3c(Br)cc(Br)cc32)cc1OC` [10720/A04]: the “Fik Kinase %Inhibition” value at FLK-1 receptor came out at 12.3%. In addition, the “Met Kinase % Inhibition” value in the experiment on MET was 62.3%.
For the molecule `O=C1Nc2ccc(S(=O)(=O)Nc3ccc(C(F)(F)F)cc3)cc2C1=Cc1ccc(F)cc1C(F)(F)F` [10719/E11], the “Fik Kinase %Inhibition” value on FLK-1 receptor was found to be 26.3%. The “Met Kinase % Inhibition” value in the experiment with MET stood at 28.5%.
Turning to `CCc1c(C)[nH]c(C=C2C(=O)Nc3ccc(CCCl)cc32)c1C` [10719/G05], the “Fik Kinase %Inhibition” value at FLK-1 receptor is given as 18.0%. Further, in the experiment on MET, the “Met Kinase % Inhibition” value was found to be 15.9%.
The matching figures for `CN(C)c1ccc(C=C2C(=O)Nc3ccc(S(=O)(=O)Nc4ccc(C(F)(F)F)cc4)cc32)cc1` [10719/E08]: 21.8% and 80.0%.
Regarding `O=C1Nc2ccc(CCCl)cc2C1=Cc1ccc(F)cc1Cl` [10719/G09], on FLK-1 receptor, the “Fik Kinase %Inhibition” value turned out to be 18.1%. Besides, in the experiment on MET, the “Met Kinase % Inhibition” value was 1.3%.
Consider `CNS(=O)(=O)c1ccc2c(c1)C(=Cc1ccc(F)cc1Cl)C(=O)N2` [10719/D09], for which the “Fik Kinase %Inhibition” value on FLK-1 receptor worked out at 7.8%. Moreover, the “Met Kinase % Inhibition” value in the experiment with MET stood at 13.0%.
Take `COc1ccc(C=C2C(=O)Nc3ccc(Br)c(C)c32)cc1OC` [10720/C04]: the “Fik Kinase %Inhibition” value on FLK-1 receptor came out at 15.3%. In addition, the “Met Kinase % Inhibition” value with MET is given as 29.0%.
In the case of `COc1cc(O)ccc1C=C1C(=O)Nc2ccc(I)cc21` [10720/B03], the “Fik Kinase %Inhibition” value on FLK-1 receptor amounted to 6.4%. Besides, in the experiment on MET, the “Met Kinase % Inhibition” value is 53.3%.
For the molecule `O=C1Nc2ccc(I)cc2C1=Cc1ccccc1` [10720/B06], on FLK-1 receptor, the “Fik Kinase %Inhibition” value was 7.3%. In the experiment on MET, the “Met Kinase % Inhibition” value was 55.1%.
On to `Cc1[nH]c(C=C2C(=O)Nc3ccc(I)cc32)c(Br)c1Br` [10717/B11], for which the “Fik Kinase %Inhibition” value on FLK-1 receptor worked out at 11.4%. Also, the “Met Kinase % Inhibition” value with MET is given as 91.0%.
For the molecule `O=C1Nc2ccc(S(=O)(=O)N3CCOCC3)cc2C1=Cc1ccc(F)cc1C(F)(F)F` [10719/F11], at FLK-1 receptor, the “Fik Kinase %Inhibition” value is on record as 11.6%. For the same molecule, the “Met Kinase % Inhibition” value in the experiment on MET was 8.7%.
Regarding `O=C1Nc2ccc(S(=O)(=O)N3CCOCC3)cc2C1=Cc1ccc(O)c(O)c1` [10719/F03], the “Fik Kinase %Inhibition” value on FLK-1 receptor amounted to 11.2%. Besides, the “Met Kinase % Inhibition” value in the experiment with MET worked out at 89.5%.
Consider `CCOc1ccc(C=C2C(=O)Nc3ccc(S(=O)(=O)N4CCOCC4)cc32)cc1OC` [10719/F02], for which the “Fik Kinase %Inhibition” value on FLK-1 receptor came out at 28.6%. In addition, the “Met Kinase % Inhibition” value with MET worked out at 28.1%.
For the molecule `COc1cccc(O)c1C=C1C(=O)Nc2ccc(I)cc21` [10717/B10], on FLK-1 receptor, the “Fik Kinase %Inhibition” value is listed as -2.3%. In addition, the “Met Kinase % Inhibition” value in the experiment with MET amounted to 56.1%.
Consider `Cc1cc(O)cc(O)c1C=C1C(=O)Nc2ccc(Br)c(C)c21` [10720/C08], for which the “Fik Kinase %Inhibition” value on FLK-1 receptor turned out to be 10.9%. The “Met Kinase % Inhibition” value in the experiment on MET came out at 65.6%.
With `CCOc1ccc(C=C2C(=O)Nc3ccc(CCCl)cc32)cc1OC` [10719/G02], the “Fik Kinase %Inhibition” value on FLK-1 receptor is 27.3%. The “Met Kinase % Inhibition” value in the experiment on MET is recorded as -2.4%.
For `Cc1c(Br)ccc2c1C(=Cc1ccccc1)C(=O)N2` [10720/C06], on FLK-1 receptor, the “Fik Kinase %Inhibition” value is listed as 12.2%. The “Met Kinase % Inhibition” value in the experiment on MET stood at 36.7%.
The matching figures for `COc1ccc(O)c(C=C2C(=O)Nc3ccc(I)cc32)c1` [10720/B10]: -5.5% and 45.2%.
Turning to `CCOc1ccc(C=C2C(=O)Nc3ccc(S(=O)(=O)NC)cc32)cc1OC` [10719/D02], the “Fik Kinase %Inhibition” value at FLK-1 receptor was 9.7%. In addition, in the experiment on MET, the “Met Kinase % Inhibition” value stood at 27.5%.
The matching figures for `O=C1Nc2c(Br)cc(Br)cc2C1=Cc1ccccc1` [10720/A06]: 5.6% and 63.6%.
On to `Cc1cc(O)cc(O)c1C=C1C(=O)Nc2c(Br)cc(Br)cc21` [10720/A08], for which the “Fik Kinase %Inhibition” value on FLK-1 receptor is reported as -2.2%. In addition, the “Met Kinase % Inhibition” value in the experiment on MET was determined as 77.9%.

Source of the values: EP1247803A2, “Indolinone compounds suitable for modulation of protein kinases” (Sugen, Inc., priority 1996, dated 1998).
